System: MDA-MB-231 multicell spheroids, viability
Test: Anticancer human tumor MDA-MB-231 cell line growth inhibition [PI3K];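 also: spheroids exposed to agents for seven days before reading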;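 as to viability, T/C: percent of vehicle control luminescence with DMSO treated spheroids as 100%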
Conditions: for IC50: curve of first compound; for viability, T/C: stronger effect = lower value
In short: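 Combination activity was assessed by viability in multicellular tumor spheroids carrying HUVEC and MSC components. Agents were tested with PI3K inhibitors from a Cmax-based top dose (or 10 microM) downward in half-log increments.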

[1] = second compound 0.00316 µM, first compound 0.0316 µM
[2] = second compound 0.00316 µM, first compound 0.1 µM
[3] = second compound 0.00316 µM, first compound 0.316 µM
[4] = second compound 0.00316 µM, first compound 1 µM
[5] = second compound 0.00316 µM, first compound 3.16 µM
[6] = second compound 0.00316 µM, first compound 10 µM
[7] = second compound 0.01 µM, first compound 0.0316 µM
[8] = second compound 0.01 µM, first compound 0.1 µM
[9] = second compound 0.01 µM, first compound 0.316 µM
[10] = second compound 0.01 µM, first compound 1 µM
[11] = second compound 0.01 µM, first compound 3.16 µM
[12] = second compound 0.01 µM, first compound 10 µM
[13] = second compound 0.0316 µM, first compound 0.0316 µM
[14] = second compound 0.0316 µM, first compound 0.1 µM
[15] = second compound 0.0316 µM, first compound 0.316 µM
[16] = second compound 0.0316 µM, first compound 1 µM
[17] = second compound 0.0316 µM, first compound 3.16 µM
[18] = second compound 0.0316 µM, first compound 10 µM
[19] = second compound 0.1 µM, first compound 0.0316 µM
[20] = second compound 0.1 µM, first compound 0.1 µM
[21] = second compound 0.1 µM, first compound 0.316 µM
[22] = second compound 0.1 µM, first compound 1 µM
[23] = second compound 0.1 µM, first compound 3.16 µM
[24] = second compound 0.1 µM, first compound 10 µM
[25] = second compound 0.316 µM, first compound 0.0316 µM
[26] = second compound 0.316 µM, first compound 0.1 µM
[27] = second compound 0.316 µM, first compound 0.316 µM
[28] = second compound 0.316 µM, first compound 1 µM
[29] = second compound 0.316 µM, first compound 3.16 µM
[30] = second compound 0.316 µM, first compound 10 µM
[31] = second compound 1 µM, first compound 0.0316 µM
[32] = second compound 1 µM, first compound 0.1 µM
[33] = second compound 1 µM, first compound 0.316 µM
[34] = second compound 1 µM, first compound 1 µM
[35] = second compound 1 µM, first compound 3.16 µM
[36] = second compound 1 µM, first compound 10 µM

Compound `C=CC(=O)N1CCN(c2nc(=O)n(-c3c(C)ccnc3C(C)C)c3nc(-c4c(O)cccc4F)c(F)cc23)C(C)C1` (centres undefined) + COc1c(OCCCN2CCOCC2)ccc2c3n(c(=NC(=O)c4cnc(N)nc4)nc12)CCN3 has an IC50 (second compound 0.00316 µM) greater than 10000 nM, an IC50 (second compound 0.01 µM) greater than 10000 nM and an IC50 (second compound 0.0316 µM) greater than 10000 nM. The IC50 (second compound 0.1 µM) was less than 31.6 nM, the IC50 (second compound 0.316 µM) was less than 31.6 nM and the IC50 (second compound 1 µM) was less than 31.6 nM. The viability, T/C [1] was 94.2%, the viability, T/C [2] was 91.6% and the viability, T/C [3] was 104%. The viability, T/C [4] was 112%, the viability, T/C [5] was 122% and the viability, T/C [6] was 105%. It also gave a viability, T/C [7] of 83.5%, a viability, T/C [8] of 82.7% and a viability, T/C [9] of 85.4%. The viability, T/C [10] was 93.2%, the viability, T/C [11] was 103% and the viability, T/C [12] was 85.8%. For the same compound, the viability, T/C [13] was 59.1%, the viability, T/C [14] was 58.9% and the viability, T/C [15] was 61.6%. For the same compound, the viability, T/C [16] was 62.5%, the viability, T/C [17] was 64.8% and the viability, T/C [18] was 48%. It also gave a viability, T/C [19] of 42.3%, a viability, T/C [20] of 45.3% and a viability, T/C [21] of 46.7%. The viability, T/C [22] was 46.1%, the viability, T/C [23] was 45.7% and the viability, T/C [24] was 33.6%. The viability, T/C [25] was 31.1%, the viability, T/C [26] was 31.4% and the viability, T/C [27] was 32.7%. For the same compound, the viability, T/C [28] was 31.7%, the viability, T/C [29] was 27.6% and the viability, T/C [30] was 26.7%. For the same compound, the viability, T/C [31] was 24.8%, the viability, T/C [32] was 24.3% and the viability, T/C [33] was 23.2%. The viability, T/C [34] was 26.3%, the viability, T/C [35] was 29.3% and the viability, T/C [36] was 25.7%.

`CC(C)NCC(C(=O)N1CCN(c2ncnc3c2C(C)CC3O)CC1)c1ccc(Cl)cc1` (centres undefined) + COc1c(OCCCN2CCOCC2)ccc2c3n(c(=NC(=O)c4cnc(N)nc4)nc12)CCN3 gave an IC50 (second compound 0.00316 µM) of 7260 nM, an IC50 (second compound 0.01 µM) of 4830 nM and an IC50 (second compound 0.0316 µM) of 1840 nM. For the same compound, the IC50 (second compound 0.1 µM) was less than 31.6 nM, the IC50 (second compound 0.316 µM) was less than 31.6 nM and the IC50 (second compound 1 µM) was less than 31.6 nM. The viability, T/C [1] was 96.1%, the viability, T/C [2] was 93.7% and the viability, T/C [3] was 83.5%. It also gave a viability, T/C [4] of 74.6%, a viability, T/C [5] of 59.3% and a viability, T/C [6] of 46.3%. For the same compound, the viability, T/C [7] was 81.8%, the viability, T/C [8] was 81.4% and the viability, T/C [9] was 69.2%. For the same compound, the viability, T/C [10] was 62.6%, the viability, T/C [11] was 54.7% and the viability, T/C [12] was 43.4%. For the same compound, the viability, T/C [13] was 61.6%, the viability, T/C [14] was 59.1% and the viability, T/C [15] was 55.8%. The viability, T/C [16] was 56.3%, the viability, T/C [17] was 45.6% and the viability, T/C [18] was 33.9%. The viability, T/C [19] was 48.5%, the viability, T/C [20] was 48.7% and the viability, T/C [21] was 45.6%. For the same compound, the viability, T/C [22] was 39.3%, the viability, T/C [23] was 37.9% and the viability, T/C [24] was 28.9%. For the same compound, the viability, T/C [25] was 32.9%, the viability, T/C [26] was 34% and the viability, T/C [27] was 31.2%. It also gave a viability, T/C [28] of 30.1%, a viability, T/C [29] of 25.5% and a viability, T/C [30] of 18.7%. It also gave a viability, T/C [31] of 23.8%, a viability, T/C [32] of 23.7% and a viability, T/C [33] of 24.9%. For the same compound, the viability, T/C [34] was 23%, the viability, T/C [35] was 24.8% and the viability, T/C [36] was 18.8%.

— PubChem BioAssay AID1963958 (Molecular Pharmacology Branch, DTP, NCI, 2024)
